Biological target: T1, recombinant human MIF protein (Homo sapiens, UniProt P14174)
T1 construct: commercial recombinant human MIF (PeproTech), amine-coupled to CM7 chip; homotrimer
T1 sequence (P14174 2-115): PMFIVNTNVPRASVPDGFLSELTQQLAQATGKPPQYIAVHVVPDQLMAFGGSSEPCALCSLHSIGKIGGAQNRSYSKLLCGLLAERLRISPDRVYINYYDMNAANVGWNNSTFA
Test: surface plasmon resonance (Biacore T200)
Type: binding

Kd: 725 nM
SMILES: Cn1c2ccccc2c2cc(C3=NCCc4c3[nH]c3ccccc43)ccc21 [compound 7, 1-(9′-methyl-3′-carbazole)-3,4-dihydro-β-carboline]

Source: publication PMC6375994, “Macrophage Migration Inhibitory Factor Acts as the Potential Target of a Newly Synthesized Compound, 1-(9′-methyl-3′-carbazole)-3, 4-dihydro-β-carboline” (Scientific Reports, 2019)
